Source: patent US7795288B2, “Thiazole and pyrazole derivatives as Flt-3 kinase inhibitors” (Novartis AG, priority 2003, dated 2010)

These compounds were tested against T1, cytoplasmic kinase domain of human Flt-3 (GST-Flt-3) (Homo sapiens, UniProt P36888) (assay: Inhibition of the protein tyrosine kinase activity of Flt-3 (GST-Flt-3, 33P incorporation into poly(Glu, Tyr))). Conditions: purified GST-Flt-3, 8.0 μM ATP, poly(Glu, Tyr) 4:1, 20 min at ambient temperature.
T1 construct: expressing the amino acid region amino acids 563-993 of the cytoplasmic kinase domain of human Flt-3; made in house; host or cells: Sf9 insect cells (baculovirus, pFbacG01 donor vector)
T1 sequence (P36888 563-993): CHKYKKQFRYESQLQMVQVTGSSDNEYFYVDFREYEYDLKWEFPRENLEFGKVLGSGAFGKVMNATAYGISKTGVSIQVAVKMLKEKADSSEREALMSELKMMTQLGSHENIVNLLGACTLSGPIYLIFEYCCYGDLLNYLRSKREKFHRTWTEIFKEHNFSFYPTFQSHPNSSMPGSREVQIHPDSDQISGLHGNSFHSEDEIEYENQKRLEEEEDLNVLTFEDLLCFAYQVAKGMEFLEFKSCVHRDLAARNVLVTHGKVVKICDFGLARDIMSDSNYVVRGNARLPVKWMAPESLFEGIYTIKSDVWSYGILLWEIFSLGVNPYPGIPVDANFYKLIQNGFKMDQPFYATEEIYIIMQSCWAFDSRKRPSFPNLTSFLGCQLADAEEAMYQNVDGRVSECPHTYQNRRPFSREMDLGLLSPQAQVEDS
Assay type: biochemical
Source text: The baculovirus donor vector pFbacG01 (GIBCO) is used to generate a recombinant baculovirus expressing the amino acid region amino acids 563-993 of the cytoplasmic kinase domain of human Flt-3. The coding sequence for the cytoplasmic domain of Flt-3 is amplified by PCR from human c-DNA libraries (Clontech). The amplified DNA fragments and the pFbacG01 vector are made compatible for ligation by digestion with BamH1 and HindIII. Ligation of these DNA fragments results in the baculovirus donor plasmid Flt-3 (1.1). The production of the viruses, the expression of proteins in Sf9 cells and the purification of the GST-fused proteins are performed as follows: Production of virus: Transfer vector (pFbacG01-Flt-3) containing the Flt-3 kinase domain is transfected into the DH10Bac cell line (GIBCO) and the transfected cells are plated on selective agar plates. Colonies without insertion of the fusion sequence into the viral genome (carried by the bacteria) are blue. Single white colonies are picked and viral DNA (bacmid) is isolated from the bacteria by standard plasmid purification procedures. Sf9 or Sf21 cells (American Type Culture Collection) are then transfected in flasks with the viral DNA using Cellfectin reagent. Protein expression in Sf9 cells: Virus containing media is collected from the transfected cell culture and used for infection to increase its titre. Virus containing media obtained after two rounds of infection is used for large-scale protein expression. For large-scale protein expression 100 cm^2 round tissue culture plates are seeded with 5×10^7 cells/plate and infected with 1 mL of virus-containing media (approx. 5 MOIs). After 3 days the cells are scraped off the plate and centrifuged at 500 rpm for 5 min. Cell pellets from 10-20, 100 cm^2 plates are resuspended in 50 mL of ice-cold lysis buffer (25 mM Tris-HCl, pH 7.5, 2 mM EDTA, 1% NP-40, 1 mM DTT, 1 mM PMSF). The cells are stirred on ice for 15 min and then centrifuged at 5000 rpms for 20 min. Purification of GST-tagged proteins: The centrifuged cell lysate is loaded onto a 2 mL glutathione-sepharose column (Pharmacia) and washed three times with 10 mL of 25 mM Tris-HCl, pH 7.5, 2 mM EDTA, 1 mM DTT, 200 mM NaCl. The GST-tagged protein is then eluted by 10 applications (1 mL each) of 25 mM Tris-HCl, pH 7.5, 10 mM reduced-glutathione, 100 mM NaCl, 1 mM DTT, 10% Glycerol and stored at −70° C. Measurement of enzyme activity: Tyrosine protein kinase assays with purified GST-Flt-3 are carried out in a final volume of 30 μL containing 200-1800 ng of enzyme protein (depending on the specific activity), 20 mM Tris-HCl, pH 7.6, 3 mM MnCl2, 3 mM MgCl2, 1 mM DTT, 10 μM Na3VO4, 3 μg/mL poly(Glu, Tyr) 4:1, 1% DMSO, 8.0 μM ATP and 0.1 μCi [γ^33 P] ATP. The activity is assayed in the presence or absence of inhibitors, by measuring the incorporation of ^33P from [γ^33P] ATP into the poly(Glu, Tyr) substrate. The assay (30 μL) is carried out in 96-well plates at ambient temperature for 20 min and terminated by the addition of 20 μL of 125 mM EDTA. Subsequently, 40 μL of the reaction mixture is transferred onto Immobilon-PVDF membrane (Millipore, Bedford, Mass., USA) previously soaked for 5 min with methanol, rinsed with water, then soaked for 5 min with 0.5% H3PO4 and mounted on vacuum manifold with disconnected vacuum source. After spotting all samples, vacuum is connected and each well rinsed with 200 μL 0.5% H3PO4. Membranes are removed and washed 4× on a shaker with 1.0% H3PO4, once with ethanol. Membranes are counted after drying at ambient temperature, mounting in Packard TopCount 96-well frame, and addition of 10 μL/well of Microscint™ (Packard). IC50 values are calculated by linear regression analysis of the percentage inhibition of each compound in duplicate, at four concentrations (usually 0.01, 0.1, 1 and 10 μM). One unit of protein kinase activity is defined as 1 nmole of ^33P transferred from [γ^33P] ATP to the substrate protein per minute per mg of protein at 37° C. […]

Row | SMILES | IC50 [nM]
1 | Oc1ccc(Nc2ncc(-c3ccsc3)s2)cc1 [Example 12, 4-(5-Thiophen-3-yl-thiazol-2-yl-amino)-phenol] | 34
2 | Oc1ccc(-c2cnc(Nc3ccc(OCCN4CCCC4)cc3)s2)cc1 [Example 7, 4-{2-[4-(2-Pyrrolidin-1-yl-ethoxy)-phenylamino]-thiazol-5-yl}-phenol] | 35
3 | c1cc(-c2cnc(Nc3ccc(OCCN4CCCCC4)cc3)s2)cs1 [Example 16, [4-(2-Piperidin-1-yl-ethoxy)-phenyl]-(5-thiophen-3-yl-thiazol-2-yl)-amine] | 22
4 | COc1ccc(-c2cnc(Nc3ccc(N4CCN(C)CC4)cc3)s2)cc1 [Example 5, [5-(4-Methoxy-phenyl)-thiazol-2-yl]-[4-(4-methyl-piperazin-1-yl)-phenyl]-amine] | 24
5 | c1ccc(-c2cnc(Nc3ccc(OCCN4CCCC4)cc3)s2)cc1 [Example 1, (5-Phenyl-thiazol-2-yl)-[4-(2-pyrrolidin-1-yl-ethoxy)-phenyl]-amine] | 41
6 | c1cc(-c2cc(Nc3ccc(OCCN4CCCC4)cc3)n[nH]2)cs1 [Example 34, [4-(2-Pyrrolidin-1-yl-ethoxy)-phenyl]-(5-thiophen-3-yl-1H-pyrazol-3-yl)-amine] | 82
7 | CCN(CC)CCOc1ccc(Nc2cc(-c3ccsc3)[nH]n2)cc1 [Example 37, [4-(2-Diethylamino-ethoxy)-phenyl]-(5-thiophen-3-yl-1H-pyrazol-3-yl)-amine] | 31
